Data from patent US20080119548A1, “Control Of Feeding Behavior By Changing Neuronal Energy Balance” (priority 2004, published 2008).
Like-named read-outs stand apart in the source and are kept apart here.

Assays:
[1] = Changes in bodyweight 24 hr after i.c.v. injection; type: in vivo, mice
From the text: (d) Changes in bodyweight 24 hr after i.c.v. injection of C75, AICAR or compound C (n=4-10). Mice were implanted with permanent stainless steel cannulae into the lateral ventricle of the brain 0.6 mm caudal to Bregma, 1.2 mm lateral to the midline, and sunk to a depth of 2.2 mm below the surface of the skull. Implanted mice were housed in individual cages and utilized for i.c.v. and i.p. injections as indicated. C75 dissolved in RPMI1640 (Gibco-BRL), AICAR (Toronto Research Chemicals Inc) or compound […], Inc.) in saline was injected i.c.v., such that desired dose could be administered in a volume of 2.5 μl, while control groups received vehicle only. Injections were done immediately preceding dark onset and food intake measurements were taken at 1 hr (0-1 hr interval), 3 hr (1-3 hr interval), and 24 hr (3-24 hr interval) after dark onset. […]. treatment groups were i.p. injected with 5 mg/kg bodyweight C75 dissolved in […] of glucose-free RPMI 1 hr before the dark onset, followed by 3 μg/2.5 μl saline i.c.v. AICAR immediately preceding the dark onset. Control groups received 200 μl of glucose free RPMI 1 hr before lights off and 2.5 μl of saline. Administration of i.p. compound C (10 or 30 mg/kg bodyweight) or C75 (10 mg/kg bodyweight) was followed by food intake measurement at the same times indicated.

pCREB = assay: Immunohistochemistry of pCREB in the arcuate nucleus; type: in vivo, mice; conditions: AICAR (3 mg) i.c.v., 20 hr after injection
Protocol: Free-floating sections were blocked in PBS containing 5% goat serum, 0.1% BSA, 0.05% Triton-X100, 1 mM NaF for 1 hr at room temperature and incubated with anti-phospho-AMPKα (α1 and α2) antibody (1:100) or anti-phospho-CREB antibody (1:500, Cell Signaling) in PBS containing 1% goat serum, 0.1% BSA, 0.05% Triton-X100, 1 mM NaF overnight at 4° C. Signal was visualized by Vectastain ABC kit (Vector). Images of in situ hybridization and immunohistochemistry were visualized using an Axiocam HRc digital camera (Carl Zeiss) and images were acquired using Improvision Openlab software, and quantified by NIH Image program (Macro).

[2] = tested on: hypothalamic AMPKα (α1 and α2); assay: Western blot of phosphorylated AMPKα in hypothalamus; type: in vivo, mice; conditions: 30 min after i.c.v. injection
Protocol: Hypothalami were dissected using as landmarks the optic chiasm rostrally, and the mammillary bodies caudally to a depth of 2 mm. Dissected hypothalamic and liver tissue were immediately frozen in liquid nitrogen. Tissues were homogenized in 200 μl of lysis buffer (50 mM Tris-HCl, pH 7.5, 250 mM sucrose, 5 mM sodium pyrophosphate, 50 mM NaF, 1 mM EDTA, 1 mM EGTA, 1 mM DTT, 0.5 mM PMSF, 0.1 mM benzamidine, 50 μg/ml leupeptin, 50 μg/ml soybean trypsin inhibitor). SDS detergent was added to a final 0.2%, and lysates were boiled for 5 min. After the supernatant was harvested, protein concentration was determined by BCA kit (Bio Rad). Phosphorylation of AMPKα was determined on a 4-15% gradient SDS-polyacrylamide gel using anti-phospho-AMPKα (α1 and α2, Thr172) antibody (1:1000, Cell Signaling). Anti-AMPKαt antibody (α1 and α2, 1:1000, Cell Signaling) was used as a loading control.

hypothalamic NPY = tested on: hypothalamic NPY
Protocol: Hypothalamic total RNA was purified using Trizol reagent (Gibco-BRL) and Northern blot analysis using 15 μg of total RNA was performed as described by Kim, et al, Am J Physiol Endocrinol Metab., 283, […]-879 (2002). RNA was hybridized with random primed ^32P-labeled DNA probes made from cloned plasmids of mouse AGRP (Genebank #U89486), human NPY (XM004941), rat CART (U10071), and mouse POMC (AH005319). As a loading control, the probe for mouse GAPDH gene was used at the same blot. The signals were quantified using an image analyzer (Molecular Dynamics) and Imagequant software.

BALB/c male mice = assay: Measurement of food intake after i.c.v. or i.p. injection; type: in vivo; conditions: for reduction in food intake: compound C 5 mg i.c.v.
Protocol: Male BALB/c mice (7-9 weeks) were purchased from Charles River Laboratories (and housed in a controlled-light (12 hr light/12 hr dark cycle) environment (lights on 0200-1400 h) and allowed ad libitum access to standard laboratory chow and water. For fasting, food was withdrawn from cage at the onset of the dark cycle for 24 hr, but ad libitum access to water was allowed.
Mice were implanted with permanent stainless steel cannulae into the lateral ventricle of the brain 0.6 mm caudal to Bregma, 1.2 mm lateral to the midline, and sunk to a depth of 2.2 mm below the surface of the skull. Implanted mice were housed in individual cages and utilized for i.c.v. and i.p. injections as indicated. C75 dissolved in RPMI1640 (Gibco-BRL), AICAR (Toronto Research Chemicals Inc) or compound C (46) (FASgen, Inc.) in saline was injected i.c.v., such that desired dose could be administered in a volume of 2.5 μl, while control groups received vehicle only. Injections were done immediately preceding dark onset and food intake measurements were taken at 1 hr (0-1 hr interval), 3 hr (1-3 hr interval), and 24 hr (3-24 hr interval) after dark onset. C75 i.p./AICAR i.c.v. treatment groups were i.p. injected with 5 mg/kg bodyweight C75 dissolved in […] of glucose-free RPMI 1 hr before the dark onset, followed by 3 μg/2.5 μl saline i.c.v. AICAR immediately preceding the dark onset. Control groups received 200 μl of glucose free RPMI 1 hr before lights off and 2.5 μl of saline. Administration of i.p. compound C (10 or 30 mg/kg bodyweight) or C75 (10 mg/kg bodyweight) was followed by food intake measurement at the same times indicated.

[3] = chronic subcutaneous AICAR 1 g/kg bodyweight for 4 weeks; cited from earlier work

NC(=O)c1ncn([C@@H]2O[C@H](CO)[C@@H](O)[C@H]2O)c1N [AICAR, 5-aminoimidazole-4-carboxamide-1-b-D-ribofuranoside]
bodyweight ([1]; AICAR single dose 3 μg i.c.v.): no significant effect on bodyweight | pCREB level in the arcuate, % of control (pCREB): 231 % of control | C75-induced decrease in hypothalamic pAMPKα levels ([2]; i.p. C75 and i.c.v. AICAR): completely reversed | hypothalamic pAMPKα level ([2]; i.p. RPMI and i.c.v. AICAR, vs vehicle): increased | hypothalamic NPY expression (hypothalamic NPY; AICAR (3 mg) i.c.v., 20 hrs after administration, p<0.001): significantly increased | NPY expression (hypothalamic NPY; AICAR i.c.v., within 5 hr (data not shown)): no change | food intake, % of control (BALB/c male mice; AICAR 3 μg i.c.v., 3-24 hr): 135% | total 24 hr food intake, % of control (BALB/c male mice; AICAR 3 μg i.c.v., total 24 hr): 130 % of control | food intake, % of control (BALB/c male mice; AICAR 3 μg i.c.v., within 1 hr): 230% | food intake at 1 hr, % of the amount of C75/saline treatment (BALB/c male mice; C75 5 mg/kg i.p. followed 1 hr later by AICAR 3 mg i.c.v., p<0.001): 346% | bodyweight [3]: no impact | fat pad mass [3]: reduction in fat pad mass | food intake [3]: no impact | liver mass [3]: increase in liver mass

c1cc(-c2cnn3cc(-c4ccc(OCCN5CCCCC5)cc4)cnc23)ccn1 [compound C]
bodyweight ([1]; compound C 5 mg i.c.v.): weight loss | reduction in food intake (BALB/c male mice; 0-1 hr): 36.2% | reduction in food intake (BALB/c male mice; 3-24 hr): 37.8% | reduction in food intake (BALB/c male mice; over 24 hr): 35.6% | food intake, % of control (BALB/c male mice; compound C 30 mg/kg bodyweight i.p., 0-1 hr): 27.4 % of control | food intake, % of control (BALB/c male mice; compound C 30 mg/kg bodyweight i.p., 1-3 hr): 3.68 % of control | food intake, % of control (BALB/c male mice; compound C 30 mg/kg bodyweight i.p., 3-24 hr): 65.7 % of control | food intake, % of control (BALB/c male mice; compound C 30 mg/kg bodyweight i.p., total): 57.8 % of control
